This experiment deals with T1, MeCP2-TBL1 interaction (MeCP2-SmBiT / TBL1-LgBiT) (Mus musculus, UniProt Q9QXE7).
T1 construct: expressed in transfected cells; crude lysate used as a cell-free assay
T1 sequence (Q9QXE7 166-527): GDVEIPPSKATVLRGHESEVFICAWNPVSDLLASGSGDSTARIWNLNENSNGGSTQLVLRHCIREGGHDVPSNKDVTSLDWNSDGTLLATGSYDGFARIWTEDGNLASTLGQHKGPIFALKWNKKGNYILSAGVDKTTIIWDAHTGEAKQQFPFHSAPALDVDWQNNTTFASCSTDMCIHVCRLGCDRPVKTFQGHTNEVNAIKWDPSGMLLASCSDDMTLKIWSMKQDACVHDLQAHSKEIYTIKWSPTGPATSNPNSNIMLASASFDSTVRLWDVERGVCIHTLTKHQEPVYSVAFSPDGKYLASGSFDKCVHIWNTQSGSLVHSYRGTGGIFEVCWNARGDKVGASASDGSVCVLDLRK
Nature of the experiment: MeCP2-TBL1 NanoLuc luciferase complementation assay (cell-free, extracts of transfected HEK293 cells).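 Further: each compound tested at 20 µM final concentration.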 The experiment is classed as binding, human. Summed up:
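Cell-free split NanoLuc: lysate of HEK293 cells co-expressing the MeCP2 C-terminal half-SmBiT and TBL1 WD domain-LgBiT, mixed 1:1 with furimazine. After 30 min at room temperature, luminescence was plate-median normalized.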

Where [1] appears, read: primary screen of Asinex library, single well per compound.
Setting [2] is: primary screen of the Asinex library, sheet "Sargen output Asinex library", one well per compound, Batch Ref. 1.
The mark [3] stands for this setting: primary screen of the Asinex library, sheet "Sargen output Asinex library", one well per compound.

43 molecules from PMC9995496, “A screen for MeCP2-TBL1 interaction inhibitors using a luminescence-based assay” (Scientific Reports, 2023) can be followed below.

`CN(Cc1ccccc1)[C@@H]1[C@@H](O)[C@H](Oc2cccc(C(F)(F)F)c2)C[C@H]1NC(=O)CCN` [BDG_34056156]: the Inhibition percent under setting [1] is -1.01.

As for `O=C(O)c1cc(F)ccc1Oc1ccccc1` [BDG_34062401], under setting [2], the Inhibition percent is listed as -1.72%.

Take `CC1(C)Oc2cc(OCCCNS(C)(=O)=O)ccc2[C@@H]2O[C@H](CCc3ccc(F)cc3)CC[C@H]21` [BDG_34121335]: the Inhibition percent under setting [2] is listed as 5.43%.

Regarding `CC1(Cc2ccc(F)cc2)Cc2cc(C(=O)N(CCCc3ccc(Cl)cc3)CC(=O)O)ccc2O1` (stereo not shown) [BDG_34127624], under setting [2], the Inhibition percent was found to be 0.89%.

On to `COc1cccc2c1OC(C)(C)[C@H]1C[C@@H]3[C@H](CCN3CC(=O)O)O[C@H]21` [BDG_34128979], for which, under setting [1], the Inhibition percent is reported as -2.31.

In the case of `COc1cccc2c1OC(C)(C)[C@H]1CC[C@H](C3CCN(CC(=O)O)CC3)O[C@H]21` [BDG_34129039], the Inhibition percent under setting [2] is listed as -1.85%.

For the molecule `CC1(C)Oc2cc(O)ccc2[C@@H]2O[C@@H]3CCCN(C(=O)CCCC(=O)O)[C@@H]3C[C@H]21` [BDG_34129513], under setting [2], the Inhibition percent came out at 5.44%.

With `COc1cccc2c1OC(C)(C)[C@H]1CC[C@H](C3CCN(C(=O)CCCC(=O)O)CC3)O[C@H]21` [BDG_34129516], the Inhibition percent under setting [3] is recorded as -0.90%.

Turning to `CN(C)CCOc1cccc2c1OC(C)(C)[C@H]1C[C@H]3CN(C(=O)CCCC(=O)O)CC[C@@H]3O[C@H]21` [BDG_34129529], the Inhibition percent under setting [2] was determined as 0.07%.

Consider `CC1(C)C[C@H]2[C@H](CCCN2C(=O)CCCc2cn[nH]c2)N1c1cccc(C(F)(F)F)c1` [BDG_34130326], for which, under setting [2], the Inhibition percent was 14.87%.

In the case of `O=C1CCCC[C@]2(CN(C(=O)CCCc3cn[nH]c3)C[C@H]2c2ccccc2F)N1` [BDG_34130330], under setting [1], the Inhibition percent is on record as -3.21.

In the case of `CC1(C)Oc2c(cccc2C(F)(F)F)[C@@H]2O[C@@H]3CCN(C(=O)CCCc4cn[nH]c4)[C@@H]3C[C@H]21` [BDG_34130346], under setting [1], the Inhibition percent stood at 7.09.

With `CC1(C)Oc2c(O)cccc2[C@@H]2O[C@@H]3CCN(C(=O)CCCc4cn[nH]c4)C[C@@H]3C[C@H]21` [BDG_34130377], under setting [1], the Inhibition percent was 1.08.

Regarding `CC(C)(CC(=O)O)CC(=O)N1CC[C@@H]2O[C@@H]3c4cc(Cl)ccc4OC(C)(C)[C@H]3C[C@@H]2C1` [BDG_34130555], the Inhibition percent under setting [1] is on record as 0.45.

Regarding `CC(=O)NCCCCCC(=O)N1CC[C@H]2O[C@H]3c4cc(C(C)(C)C)ccc4OC(C)(C)[C@@H]3C[C@@H]21` [BDG_34131400], the Inhibition percent under setting [1] amounted to 3.20.

Consider `CC(=O)NCCCCCC(=O)N1C[C@@H](c2ccc(F)cc2)[C@@]2(CCCCC(=O)N2)C1` [BDG_34131511], for which the Inhibition percent under setting [1] is 3.80.

In the case of `CCOc1cccc2c1OC(C)(C)[C@@H]1C[C@@H]3[C@@H](CCCN3C(=O)c3cccc(F)c3C(=O)O)O[C@@H]21` [BDG_34132357], under setting [1], the Inhibition percent is given as -0.29.

`COc1ccccc1N1[C@H]2CCCN(C(=O)c3cccc(OCC(=O)O)c3)[C@H]2CC1(C)C` [BDG_34133274]: the Inhibition percent under setting [1] was -3.82.

Regarding `O=C(O)COc1cccc(C(=O)N2C[C@@H](c3ccccc3F)[C@@]3(CCCCC(=O)N3)C2)c1` [BDG_34133280], the Inhibition percent under setting [1] was determined as 2.13.

As for `CC1(C)Oc2ccccc2[C@H]2O[C@H]3CCN(C(=O)c4cccc(OCC(=O)O)c4)C[C@@H]3C[C@@H]21` [BDG_34133285], the Inhibition percent under setting [3] worked out at 2.74%.

Turning to `CC1(C)Oc2ccc(O)cc2[C@H]2O[C@H]3CCN(C(=O)c4cccc(OCC(=O)O)c4)[C@@H]3C[C@@H]21` [BDG_34133313], under setting [2], the Inhibition percent is listed as -2.82%.

Turning to `CC1(C)Oc2ccc(Cl)cc2[C@H]2O[C@H]3CCN(C(=O)c4ccccc4OCC(=O)O)C[C@H]3C[C@@H]21` [BDG_34133540], under setting [1], the Inhibition percent turned out to be 1.43.

Consider `CC1(C)Oc2c(O)cccc2[C@H]2O[C@H]3CCN(C(=O)c4cccc(Cn5ccnc5)c4)[C@@H]3C[C@@H]21` [BDG_34133876], for which the Inhibition percent under setting [1] turned out to be 5.67.

Consider `CC1(C)Oc2c(O)cccc2[C@@H]2O[C@@H]3CCN(C(=O)c4cccc(Cn5ccnc5)c4)[C@@H]3C[C@H]21` [BDG_34133887], for which, under setting [1], the Inhibition percent amounted to 0.92.

Take `CC1(C)Oc2ccccc2[C@@H]2O[C@@H]3CCN(C(=O)c4cccc(Cn5ccnc5)c4)C[C@@H]3C[C@H]21` [BDG_34133919]: the Inhibition percent under setting [2] is recorded as 1.73%.

In the case of `CC1(C)Oc2ccc(Cl)cc2[C@H]2O[C@H]3CCN(CC(=O)N4CC(=O)Nc5ccccc54)C[C@@H]3C[C@@H]21` [BDG_34134010], the Inhibition percent under setting [2] is given as 2.78%.

On to `CC1(C)Oc2c(O)cccc2[C@H]2O[C@H]3CCN(CC(=O)N4CC(=O)Nc5ccccc54)[C@@H]3C[C@@H]21` [BDG_34134040], for which, under setting [3], the Inhibition percent is given as 2.67%.

For the molecule `CC1(C)Oc2ccc(Cl)cc2[C@@H]2O[C@@H]3CCN(CC(=O)N4CC(=O)Nc5ccccc54)C[C@@H]3C[C@H]21` [BDG_34134082], the Inhibition percent under setting [2] is 3.72%.

As for `Cc1cc(O[C@@H]2C[C@@H](NC(=O)CCCC(=O)O)[C@H](N3CCc4ccccc4C3)[C@H]2O)cc(C(C)C)c1` [BDG_34135452], the Inhibition percent under setting [2] is on record as -0.70%.

For the molecule `O=C(O)CCCC(=O)N[C@@H]1C[C@@H](Oc2cccc(Cl)c2)[C@H](O)[C@H]1N1CCc2ccccc2C1` [BDG_34135462], under setting [2], the Inhibition percent was -0.65%.

Take `CN(Cc1ccccc1)[C@@H]1[C@@H](O)[C@H](Oc2ccc(F)c(F)c2)C[C@H]1NC(=O)CC(C)(C)CC(=O)O` [BDG_34135525]: the Inhibition percent under setting [3] is 1.42%.

For the molecule `CN(Cc1ccccc1)[C@@H]1[C@@H](O)[C@H](Oc2ccccc2F)C[C@H]1NC(=O)CC(C)(C)CC(=O)O` [BDG_34135529], under setting [1], the Inhibition percent was 1.25.

For the molecule `CN(Cc1ccc(F)cc1)[C@@H]1[C@@H](O)[C@H](Oc2ccccc2F)C[C@H]1NC(=O)CC(C)(C)CC(=O)O` [BDG_34135530], the Inhibition percent under setting [1] is 5.96.

As to `CN(Cc1ccc(F)cc1)[C@@H]1[C@@H](O)[C@H](Oc2cccc(F)c2)C[C@H]1NC(=O)c1cccc(C(=O)O)c1` [BDG_34135616], under setting [1], the Inhibition percent is 1.33.

As to `COC(=O)c1ccc(NC(=O)c2cccc(Br)c2OCC(=O)O)cc1` [BDG_51125744], the Inhibition percent under setting [2] was 7.09%.

On to `CC1(C)Oc2ccc(C(=O)O)cc2[C@H]2O[C@H]3CCSC[C@H]3C[C@@H]21` [BDG_51128812], for which, under setting [1], the Inhibition percent is given as -0.06.

For the molecule `Cc1nc(Nc2ncc(C#N)s2)ccc1CC1COCCN(S(C)(=O)=O)C1` (stereo not shown) [BDG_51128826], the Inhibition percent under setting [1] is reported as -0.16.

As for `CC(=O)c1ccc(NC(=O)CN2CCC[C@@H]3O[C@@H]4c5cc(Cl)ccc5OC(C)(C)[C@H]4C[C@@H]32)cc1` [BDG_51129056], the Inhibition percent under setting [1] was -1.84.

On to `COc1cccc2c1OC(C)(C)[C@@H]1C[C@H]3CN(CC(=O)Nc4ccc(C(C)=O)cc4)CC[C@H]3O[C@@H]21` [BDG_51129062], for which the Inhibition percent under setting [1] was 4.58.

Take `Cc1cc(C)n(-c2cccc(C(=O)N3C[C@@H](c4ccccc4)[C@@]4(CCCCC(=O)N4)C3)c2)n1` [BDH_20395756]: under setting [3], the Inhibition percent is on record as -4.76%.

As for `C[C@]12C[C@@H](Cc3ccccc3)N(C(=O)c3cccc(Cn4cccn4)c3)[C@H]1CCCC(=O)N2` [BDH_24639058], the Inhibition percent under setting [1] is -1.63.

Take `Cc1c(F)cccc1NC(=O)CN1[C@H](Cc2ccccc2)C[C@]2(C)NC(=O)CCC[C@H]12` [BDH_24639961]: the Inhibition percent under setting [2] is on record as 0.80%.

As for `Cc1c(NC(=O)CN2[C@H](Cc3ccccc3)C[C@]3(C)NC(=O)CCC[C@H]23)cnn1C` [BDH_24639966], the Inhibition percent under setting [1] amounted to 0.23.
